Source: PubChem BioAssay (NCI)
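Step 1: Grow cells in 96-well plates. Step 2: Expose to compound for 48 hours at 5 concentrations. Step 3: Interpolate endpoints linearly; if unreached, use highest concentration. TGI: total growth inhibition.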

Experiments:
Assay in all cases: NCI-60 cell line screen, 48 h
[1] = test system: HL-60(TB) leukemia
[2] = test system: BT-549 breast
[3] = test system: ACHN renal
[4] = test system: SK-MEL-28 melanoma
[5] = test system: SN12C renal
[6] = test system: NCI/ADR-RES ovarian
[7] = test system: OVCAR-4 ovarian
[8] = test system: SK-MEL-5 melanoma
[9] = test system: OVCAR-5 ovarian
[10] = test system: NCI-H226 lung
[11] = test system: RXF 393 renal
[12] = test system: HOP-62 NSCLC
[13] = test system: T-47D breast
[14] = test system: SF-539 CNS
[15] = test system: KM12 colon
[16] = test system: MDA-MB-435
[17] = test system: SF-268 CNS
[18] = test system: PC-3 prostate
[19] = test system: EKVX NSCLC
[20] = test system: U251 CNS
[21] = test system: RPMI-8226 leukemia
[22] = test system: M14 melanoma
[23] = test system: UACC-257 melanoma
[24] = test system: A549 NSCLC
[25] = test system: TK-10 renal
[26] = test system: HT29 colon
[27] = test system: HS 578T breast
[28] = test system: SK-OV-3 ovarian
[29] = test system: 786-0 renal
[30] = test system: NCI-H23 lung
[31] = test system: COLO 205 colon
[32] = test system: HCT-15 colon
[33] = test system: NCI-H460 lung
[34] = test system: SF-295 CNS
[35] = test system: DU-145 prostate
[36] = test system: HCT-116 colon
[37] = test system: MDA-N
[38] = test system: MDA-MB-231 breast
[39] = test system: IGROV1 ovarian
[40] = test system: SNB-75 CNS
[41] = test system: SR leukemia
[42] = test system: UACC-62 melanoma
[43] = test system: SNB-19 CNS
[44] = test system: MALME-3M melanoma
[45] = test system: MOLT-4 leukemia
[46] = test system: SW-620 colon
[47] = test system: SK-MEL-2 melanoma
[48] = test system: CAKI-1 renal
[49] = test system: HOP-92 NSCLC
[50] = test system: A498 renal
[51] = test system: OVCAR-3 ovarian
[52] = test system: CCRF-CEM leukemia
[53] = test system: LOX IMVI melanoma
[54] = test system: UO-31 renal
[55] = test system: OVCAR-8 ovarian
[56] = test system: K-562 leukemia
[57] = test system: NCI-H522 lung

For `O=C1CC(NCCCNC2CC(=O)c3c(Br)sc(Br)c32)c2c(Br)sc(Br)c21` (stereo not given), the TGI [1] was greater than 100 µM, the TGI [2] was 4.23 µM and the TGI [3] was 3.55 µM. The TGI [4] was greater than 24.3 µM, the TGI [5] was 4.77 µM and the TGI [6] was 5.64 µM. The TGI [7] was 12.7 µM, the TGI [8] was 6.04 µM and the TGI [9] was 4.85 µM. It also gave a TGI [10] of 12.6 µM, a TGI [11] of 3.62 µM and a TGI [12] of 14 µM. It also gave a TGI [13] of 5.28 µM, a TGI [14] of 8.56 µM and a TGI [15] of 3.5 µM. The TGI [16] was 4.28 µM, the TGI [17] was 11.7 µM and the TGI [18] was 3.9 µM. It also gave a TGI [19] of 4.8 µM, a TGI [20] of 2.82 µM and a TGI [21] greater than 100 µM. It also gave a TGI [22] of 4.39 µM, a TGI [23] greater than 35.8 µM and a TGI [24] greater than 100 µM. It also gave a TGI [25] of 4.61 µM, a TGI [26] of 4.96 µM and a TGI [27] greater than 44.6 µM. The TGI [28] was 14.9 µM, the TGI [29] was 2.63 µM and the TGI [30] was 4.36 µM. For the same molecule, the TGI [31] was 5.89 µM, the TGI [32] was 3.56 µM and the TGI [33] was greater than 100 µM. For the same molecule, the TGI [34] was 14.3 µM, the TGI [35] was 3.64 µM and the TGI [36] was 2.41 µM. The TGI [37] was 5.54 µM, the TGI [38] was 4.3 µM and the TGI [39] was 3.7 µM. For the same molecule, the TGI [40] was 7.68 µM, the TGI [41] was greater than 100 µM and the TGI [42] was 3.86 µM. The TGI [43] was 6.75 µM, the TGI [44] was 4.21 µM and the TGI [45] was 1.21 µM. It also gave a TGI [46] greater than 100 µM, a TGI [47] of 5.01 µM and a TGI [48] of 3.77 µM.

Work on `CN(CCNC(=O)c1cn(C)c2c1ccc1cc(Cl)ccc12)CCNC(=O)c1cn(C)c2c1ccc1cc(Cl)ccc12` yielded a TGI [49] of 18.8 µM, a TGI [1] of 10.4 µM and a TGI [2] of 21.9 µM. It also gave a TGI [3] of 9.73 µM, a TGI [4] of 10.9 µM and a TGI [5] of 3.37 µM. For the same molecule, the TGI [50] was 14.5 µM, the TGI [6] was 3.6 µM and the TGI [7] was 3.68 µM. The TGI [51] was 6.43 µM, the TGI [8] was greater than 26.9 µM and the TGI [9] was 4.41 µM. The TGI [10] was 77.8 µM, the TGI [52] was 66 µM and the TGI [14] was 9.35 µM. It also gave a TGI [15] of 3.03 µM, a TGI [16] of 3.47 µM and a TGI [53] of 34 µM. It also gave a TGI [17] of 3.51 µM, a TGI [18] of 11.5 µM and a TGI [19] of 4.04 µM. It also gave a TGI [20] greater than 100 µM, a TGI [22] of 3 µM and a TGI [23] of 67.4 µM. The TGI [54] was 2.94 µM, the TGI [25] was 18.2 µM and the TGI [26] was 3.62 µM. The TGI [27] was 4.25 µM, the TGI [55] was 33.8 µM and the TGI [30] was 4.87 µM. The TGI [31] was 2.57 µM, the TGI [32] was 3.3 µM and the TGI [33] was greater than 100 µM. It also gave a TGI [56] of 13.6 µM, a TGI [35] of 3.25 µM and a TGI [36] of 3.18 µM. It also gave a TGI [37] of 3.41 µM, a TGI [38] of 71.8 µM and a TGI [39] of 21.6 µM. For the same molecule, the TGI [41] was 38 µM, the TGI [42] was 10.8 µM and the TGI [57] was 3.68 µM. The TGI [44] was 4.85 µM, the TGI [45] was 11.3 µM and the TGI [46] was 40.5 µM. For the same molecule, the TGI [47] was 13.7 µM and the TGI [48] was 4.99 µM.
